According to patent US20170121315A1, “HETEROBICYCLICALLY SUBSTITUTED 4-OXOBUTANE ACID DERIVATIVES AND USE THEREOF” (priority 2014, published 2017):

Assays:
rat hepatocytes = test: Hepatocyte assay for determination of metabolic stability; type: in vitro ADME; details: after incubation with rat hepatocytes
Procedure: The metabolic stability of test compounds towards hepatocytes is determined by incubating the compounds at low concentrations (preferably below or around 1 μM) and at low cell counts (preferably at 1*10^6 cells/ml) in order to ensure maximum linearity of kinetic conditions in the experiment. Seven samples from the incubation solution are taken for the LC-MS analysis within a fixed time pattern, in order to determine the half-life (i.e. the degradation) of the particular compound. This half-life is used to calculate various “Clearance” parameters (CL) and “Fmax” values (see below).
The CL and Fmax values are a measure of the phase 1 and phase 2 metabolism of the compounds in the hepatocytes. In order to minimize the influence of the organic solvent on the enzymes in the incubation batches, the concentration thereof is generally limited to 1% (acetonitrile) or 0.1% (DMSO).
For all species and breeds, a hepatocyte cell count in the liver of 1.1*10^8 cells/g of liver is expected.

MMP-7 = biological target: T1, MMP-7 (Homo sapiens, UniProt P09237); test: In vitro MMP-7 inhibition test; type: biochemical; details: human MMP-7
T1 construct: purchased R&D Systems 907-MP
T1 sequence (P09237 95-267): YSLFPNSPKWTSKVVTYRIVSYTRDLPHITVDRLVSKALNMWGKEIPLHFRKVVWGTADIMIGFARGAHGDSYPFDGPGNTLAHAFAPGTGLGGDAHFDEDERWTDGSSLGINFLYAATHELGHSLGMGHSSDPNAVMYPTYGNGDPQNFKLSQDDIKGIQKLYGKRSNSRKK
Excerpt: (§1) The MMP-mediated amidolytic cleavage of a suitable peptide substrate leads to an increase in fluorescent light here too. The signal intensity of the fluorescent light is directly proportional to the enzyme activity. The active concentration of a test compound at which half the enzyme is inhibited (50% signal intensity of the fluorescent light) is reported as the IC50 value.
(§2) Recombinant MMP-7 (from R&D Systems, 907-MP) is chemically activated in accordance with the manufacturer's instructions using APMA. 1 μl of the test compound to be analysed (as a solution in DMSO, suitable concentrations e.g. 1 nM to 30 μM) is pipetted into 24 μl of activated enzyme (final concentration e.g. 0.5 nM) in reaction buffer (50 mM Tris/HCl pH 7.5, 10 mM CaCl2, 150 mM NaCl, 0.05% Brij®-35) in a white 384-hole microtiter plate (MTP). The enzymatic reaction is started by adding the intramolecularly quenched Mca-Pro-Leu-Gly-Leu-Dpa(Dnp)-Ala-Arg-NH2 substrate (final concentration e.g. 10 μM; R&D Systems, ES-001), so as to result in a total test volume of 50 μl. The course of the MMP-7 reaction is measured by measuring the fluorescence intensity (excitation 320 nm, emission 410 nm) over a suitable period of time (e.g. over 120 min at a temperature of 32° C.).

MMP-9 = biological target: T2, MMP-9 (Homo sapiens, UniProt P14780); test: In vitro MMP-9 inhibition test; type: biochemical; details: human MMP-9
T2 construct: purchased R&D Systems 911-MP
T2 sequence (P14780 107-707 limits assumed): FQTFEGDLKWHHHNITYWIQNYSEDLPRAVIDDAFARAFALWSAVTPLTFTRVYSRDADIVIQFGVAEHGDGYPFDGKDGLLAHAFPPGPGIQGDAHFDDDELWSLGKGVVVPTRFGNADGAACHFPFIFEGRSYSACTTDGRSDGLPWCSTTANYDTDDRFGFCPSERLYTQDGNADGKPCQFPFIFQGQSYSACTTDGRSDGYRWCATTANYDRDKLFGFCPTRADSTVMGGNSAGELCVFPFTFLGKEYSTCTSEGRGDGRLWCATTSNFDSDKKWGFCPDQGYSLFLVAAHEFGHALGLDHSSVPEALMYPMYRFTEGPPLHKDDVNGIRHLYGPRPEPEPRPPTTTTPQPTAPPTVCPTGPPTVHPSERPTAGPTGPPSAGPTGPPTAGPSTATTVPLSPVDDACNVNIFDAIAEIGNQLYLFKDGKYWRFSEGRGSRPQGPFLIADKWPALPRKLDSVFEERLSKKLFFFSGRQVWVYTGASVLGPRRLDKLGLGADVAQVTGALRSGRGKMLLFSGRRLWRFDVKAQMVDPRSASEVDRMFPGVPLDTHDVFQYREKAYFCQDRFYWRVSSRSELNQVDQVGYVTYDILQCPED
Excerpt: as §1
as §2, with “MMP-9 (R&D” for “MMP-7 (from R&D”, “911-MP)” for “907-MP)”, “0.1” for “0.5”, “MMP-9” for “MMP-7”

MMP-8 = biological target: T3, MMP-8 (Homo sapiens, UniProt P22894); test: In vitro MMP-8 inhibition test; type: biochemical; details: human MMP-8
T3 construct: purchased R&D Systems 908-MP
T3 sequence (P22894 101-467): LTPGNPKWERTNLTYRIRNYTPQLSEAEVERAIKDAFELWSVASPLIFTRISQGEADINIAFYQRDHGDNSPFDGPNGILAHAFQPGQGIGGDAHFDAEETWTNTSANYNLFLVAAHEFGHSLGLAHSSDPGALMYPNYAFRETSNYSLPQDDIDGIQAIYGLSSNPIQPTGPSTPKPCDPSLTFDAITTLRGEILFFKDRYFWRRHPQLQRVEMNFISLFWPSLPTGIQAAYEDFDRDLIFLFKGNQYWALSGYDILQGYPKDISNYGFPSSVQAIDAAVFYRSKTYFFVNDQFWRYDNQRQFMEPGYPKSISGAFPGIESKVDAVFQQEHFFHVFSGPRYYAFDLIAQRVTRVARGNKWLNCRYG
Excerpt: as §1
as §2, with “MMP-8 (R&D” for “MMP-7 (from R&D”, “908-MP)” for “907-MP)”, “MMP-8” for “MMP-7”

CLblood (calculated blood clearance, well-stirred) (rat hepatocytes) [mL/min/kg]	Fmax (maximum possible bioavailability after oral administration, well-stirred) (rat hepatocytes) [%]	IC50 (MMP-7) [µM]	IC50 (MMP-9) [µM]	IC50 (MMP-8) [µM]	Compound
27	61.4	> 40	9.1	7.7	O=C(CC(CCn1nnc2ccccc2c1=O)C(=O)O)c1cc2cc(OCC3CCOCC3)ccc2o1 (racemic) [Example 5, (+/−)-4-Oxo-2-[2-(4-oxo-1,2,3-benzotriazin-3(4H)-yl)ethyl]-4-[5-(tetrahydro-2H-pyran-4-ylmethoxy)-1-benzofur-2-yl]butanoic acid]
–	–	> 40	0.91	0.27	O=C(CC(CCn1nnc2ccccc2c1=O)C(=O)O)c1noc2cc(OCc3cccnc3)ccc12 (racemic) [Example 148, (+/−)-4-Oxo-2-[2-(4-oxo-1,2,3-benzotriazin-3(4H)-yl)ethyl]-4-[6-(pyridin-3-ylmethoxy)-1,2-benzoxazol-3-yl]butanoic acid]
–	–	29	0.65	0.4	O=C(CC(CCn1nnc2ccccc2c1=O)C(=O)O)c1noc2cc(OCC3CC3)ccc12 (racemic) [Example 150, (+/−)-4-[6-(Cyclopropylmethoxy)-1,2-benzoxazol-3-yl]-4-oxo-2-[2-(4-oxo-1,2,3-benzotriazin-3(4H)-yl)ethyl]butanoic acid]
–	–	> 40	0.45	1.7	O=C(CC(CCn1nnc2ccccc2c1=O)C(=O)O)c1noc2cc(OCC3CCCCC3)ccc12 (racemic) [Example 153, (+/−)-4-[6-(Cyclohexylmethoxy)-1,2-benzoxazol-3-yl]-4-oxo-2-[2-(4-oxo-1,2,3-benzotriazin-3(4H)-yl)ethyl]butanoic acid]
–	–	> 40	0.17	2.8	O=C(CC(CCn1nnc2ccccc2c1=O)C(=O)O)c1onc2cc(OCc3ccccc3)ccc12 (racemic) [Example 156, (+/−)-4-[6-(Benzyloxy)-2,1-benzoxazol-3-yl]-4-oxo-2-[2-(4-oxo-1,2,3-benzotriazin-3(4H)-yl)ethyl]butanoic acid]
–	–	0.16	0.19	0.15	O=C(O)[C@H]1[C@H](Cn2nnc3ccc(C(F)(F)F)cc3c2=O)CC[C@@H]1C(=O)c1cc2cc(OCCc3ccccc3)ccc2o1 (racemic) [Example 157, (+/−)-(1RS,2SR,5RS)-2-{[4-Oxo-6-(trifluoromethyl)-1,2,3-benzotriazin-3(4H)-yl]methyl}-5-{[5-(2-phenylethoxy)-1-benzofur-2-yl]carbonyl}cyclopentanecarboxylic acid (racemate)]
–	–	> 40	0.041	0.94	CCCCCOc1ccc2c(C(=O)CC(CCn3nnc4ccccc4c3=O)C(=O)O)coc2c1 (single isomer, unassigned) [Example 91, 4-Oxo-2-[2-(4-oxo-1,2,3-benzotriazin-3(4H)-yl)ethyl]-4-[6-(pentyloxy)-1-benzofur-3-yl]butanoic acid]
–	–	> 40	5.6	14	O=C(CC(CCn1nnc2ccccc2c1=O)C(=O)O)c1cc2cc(OCCc3ccccc3)ccc2o1 (single isomer, unassigned; (+)) [Example 21, (+)-4-Oxo-2-[2-(4-oxo-1,2,3-benzotriazin-3(4H)-yl)ethyl]-4-[5-(2-phenylethoxy)-1-benzofur-2-yl]butanoic acid]
–	–	> 40	13	6.3	O=C(CC(CCn1nnc2ccccc2c1=O)C(=O)O)c1cc2cc(OCc3ccc(F)cc3)ccc2o1 (single isomer, unassigned; (+)) [Example 23, (+)-4-{5-[(4-Fluorobenzyl)oxy]-1-benzofur-2-yl}-4-oxo-2-[2-(4-oxo-1,2,3-benzotriazin-3(4H)-yl)ethyl]butanoic acid]
–	–	> 40	27	32	O=C(CC(CCn1nnc2ccccc2c1=O)C(=O)O)c1cc2cc(OCc3ccccc3)ccc2o1 (single isomer, unassigned; (+)) [Example 30, (+)-4-[5-(Benzyloxy)-1-benzofur-2-yl]-4-oxo-2-[2-(4-oxo-1,2,3-benzotriazin-3(4H)-yl)ethyl]butanoic acid]
–	–	25	38	4.9	NC(=O)c1cccc(COc2ccc3oc(C(=O)CC(CCn4nnc5ccccc5c4=O)C(=O)O)cc3c2)c1 (single isomer, unassigned; (+)) [Example 34, (+)-4-{5-[(3-Carbamoylbenzyl)oxy]-1-benzofur-2-yl}-4-oxo-2-[2-(4-oxo-1,2,3-benzotriazin-3(4H)-yl)ethyl]butanoic acid]
–	–	> 40	13	> 40	CCCCCCCOc1ccc2cc(C(=O)CC(CCn3nnc4ccccc4c3=O)C(=O)O)oc2c1 (single isomer, unassigned; (+)) [Example 69, (+)-4-[6-(Heptyloxy)-1-benzofur-2-yl]-4-oxo-2-[2-(4-oxo-1,2,3-benzotriazin-3(4H)-yl)ethyl]butanoic acid acid]
–	–	> 40	0.28	0.44	O=C(CC(CCn1nnc2ccccc2c1=O)C(=O)O)c1coc2cc(OCC3CCCC3)ccc12 (single isomer, unassigned; (+)) [Example 80, (+)-4-[6-(Cyclopentylmethoxy)-1-benzofur-3-yl]-4-oxo-2-[2-(4-oxo-1,2,3-benzotriazin-3(4H)-yl)ethyl]butanoic acid]
–	–	> 40	0.094	0.58	O=C(CC(CCn1nnc2ccccc2c1=O)C(=O)O)c1coc2cc(OCC3CCCCC3)ccc12 (single isomer, unassigned; (+)) [Example 82, (+)-4-[6-(Cyclohexylmethoxy)-1-benzofur-3-yl]-4-oxo-2-[2-(4-oxo-1,2,3-benzotriazin-3(4H)-yl)ethyl]butanoic acid]
–	–	> 40	0.074	2.8	CCCCCCOc1ccc2c(C(=O)CC(CCn3nnc4ccccc4c3=O)C(=O)O)coc2c1 (single isomer, unassigned; (+)) [Example 100, (+)-4-[6-(Hexyloxy)-1-benzofur-3-yl]-4-oxo-2-[2-(4-oxo-1,2,3-benzotriazin-3(4H)-yl)ethyl]butanoic acid]

Compound	CLblood (calculated blood clearance, well-stirred) (rat hepatocytes) [mL/min/kg]	Fmax (maximum possible bioavailability after oral administration, well-stirred) (rat hepatocytes) [%]	IC50 (MMP-7) [µM]	IC50 (MMP-9) [µM]	IC50 (MMP-8) [µM]
O=C(CC(CCn1nnc2ccccc2c1=O)C(=O)O)c1cc2cc(OCCCC(F)(F)F)ccc2o1 (single isomer, unassigned; enantiomer 2) [Example 13, (+)-4-Oxo-2-[2-(4-oxo-1,2,3-benzotriazin-3(4H)-yl)ethyl]-4-[5-(4,4,4-trifluorobutoxy)-1-benzofur-2-yl]butanoic acid (enantiomer 2)]	–	–	> 40	3.8	5
